Assay results reported in US20260285863A1, “COMPOUNDS CAPABLE OF MODULATING GPR65” (Pathios Therapeutics Limited, priority 2023, published 2026).

target: T1, human recombinant GPR65 (Homo sapiens, UniProt Q8IYL9); assay: Human GPR65 cAMP HTRF antagonist assay; format: cell-based; settings: 1321N1-hrGPR65 cells, assay pH 7.2, cAMP HTRF; read-out: hGPR65 IC50
T1 construct: host or cells: 1321N1 human astrocytoma cells (1321N1-hrGPR65)
Summary of the method: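 1321N1 cells stably expressing human GPR65 were preincubated 30 min at room temperature with compound in KRH pH 7.6 containing 1 mM IBMX and 200 μM EDTA. They were then acid-stimulated to pH 7.2 for 30 min, with pH 7.9 as control. cAMP was read by HTRF (665/620 ratio), and IC50 came from normalised 4-parameter logistic fits.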

T1 sequence (Q8IYL9 whole entry): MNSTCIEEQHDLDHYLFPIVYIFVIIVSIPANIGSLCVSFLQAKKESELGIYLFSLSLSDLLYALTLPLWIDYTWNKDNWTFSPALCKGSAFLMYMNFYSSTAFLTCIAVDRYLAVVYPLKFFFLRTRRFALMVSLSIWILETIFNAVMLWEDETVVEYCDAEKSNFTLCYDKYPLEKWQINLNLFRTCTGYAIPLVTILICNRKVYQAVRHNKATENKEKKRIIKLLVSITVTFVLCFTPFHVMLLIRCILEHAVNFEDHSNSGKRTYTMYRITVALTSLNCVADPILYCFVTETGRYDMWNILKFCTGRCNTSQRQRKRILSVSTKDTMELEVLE

Row | Structure (SMILES) | IC50 [µM]
1 | O=C(Nc1cc(Cl)c(Cl)cc1OCC1CC1(F)F)N1[C@H]2CC[C@@H]1c1n[nH]c(=O)cc1C2 (stereo partly drawn) [Compound 88, (6S,9R)-N-(4,5-Dichloro-2-((2,2-difluorocyclopropyl)methoxy)phenyl)-3-oxo-3,5,6,7,8,9-hexahydro-2H-6,9-epiminocyclohepta[c]pyridazine-10-carboxamide] | > 5
2 | O=C(Nc1cc(Cl)c(Cl)cc1OCC1(F)CC1)N1[C@H]2CC[C@@H]1c1n[nH]c(=O)cc1C2 [Compound 89, (6S,9R)-N-(4,5-Dichloro-2-((1-fluorocyclopropyl)methoxy)phenyl)-3-oxo-3,5,6,7,8,9-hexahydro-2H-6,9-epiminocyclohepta[c]pyridazine-10-carboxamide] | > 5
3 | O=C1c2ccc(NC(=O)N3[C@H]4CC[C@@H]3c3n[nH]c(=O)cc3C4)cc2C(=O)N1c1ccc(OCC(F)(F)F)nc1 [Compound 91, (6S,9R)-N-(1,3-Dioxo-2-(6-(2,2,2-trifluoroethoxy)pyridin-3-yl)isoindolin-5-yl)-3-oxo-3,5,6,7,8,9-hexahydro-2H-6,9-epiminocyclohepta[c]pyridazine-10-carboxamide] | 0.5 to 5
4 | O=C(Nc1cc(Cl)c(-c2ccc(Nc3cc(Cl)c(-c4ccc(OCC(F)(F)F)nc4)cc3F)nc2)cc1F)N1[C@H]2CC[C@@H]1c1n[nH]c(=O)cc1C2 [Compound 92, (6S,9R)-N-(5-Chloro-4-(6-((5-chloro-2-fluoro-4-(6-(2,2,2-trifluoroethoxy)pyridin-3-yl)phenyl)amino)pyridin-3-yl)-2-fluorophenyl)-3-oxo-3,5,6,7,8,9-hexahydro-2H-6,9-epiminocyclohepta[c]pyridazine-10-carboxamide] | < 0.5
